Data as given in PubChem BioAssay AID256 (DTP/NCI, 2004).
“And” between values parts separate entries of the source, which are not always exact repeats. Equal values may be shown once. Inconclusive results and toxic doses are left out.

Tested on: CD2F1 mice, L1210 leukemia ip, survival T/C
Assay: NCI In Vivo Anticancer Drug Screen. Data for tumor model L1210 Leukemia (intraperitoneal) in CD2F1 (CDF1) mice
Details: endpoint: mean survival time, higher = longer survival
Summary of the method: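 Each value reflects a quotient of treated over vehicle control outcomes in mice with a transplanted tumor.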

[1] = dose: 50.0 mg/kg/injection, schedule: Q04DX003 (ip), vehicle: saline
[2] = dose: 100.0 mg/kg/injection, schedule: Q04DX003 (ip), vehicle: saline
[3] = dose: 200.0 mg/kg/injection, schedule: Q04DX003 (ip), vehicle: saline

Structure (SMILES): CS(=O)(=O)OCCCNCCCOS(C)(=O)=O
- T/C (dose: 6.3 mg/kg/injection, schedule: Q01DX009 (ip), vehicle: saline): 123 % of control
- T/C (dose: 6.3 mg/kg/injection, schedule: Q04DX003 (ip), vehicle: saline): 119 % of control and 114 % of control
- T/C (dose: 10.0 mg/kg/injection, schedule: Q03DX003 (ip), vehicle: saline): 121 % of control
- T/C (dose: 12.5 mg/kg/injection, schedule: Q01DX001 (ip), vehicle: saline): 121 % of control and 120 % of control
- T/C (dose: 12.5 mg/kg/injection, schedule: Q04DX003 (ip), vehicle: saline): 119 % of control
- T/C (dose: 20.0 mg/kg/injection, schedule: Q01DX007 (ip), vehicle: saline): 162 % of control
- T/C (dose: 20.0 mg/kg/injection, schedule: Q01DX009 (ip), vehicle: saline): 164 % of control and 170 % of control
- T/C (dose: 20.0 mg/kg/injection, schedule: Q04DX003 (ip), vehicle: saline): 152 % of control
- T/C (dose: 23.0 mg/kg/injection, schedule: Q01DX009 (ip), vehicle: saline): 160 % of control
- T/C (dose: 25.0 mg/kg/injection, schedule: Q01DX001 (ip), vehicle: saline): 110 % of control
- T/C (dose: 25.0 mg/kg/injection, schedule: Q01DX009 (ip), vehicle: saline): 162 % of control [middle of 4 runs]
- T/C (dose: 25.0 mg/kg/injection, schedule: Q04DX003 (ip), vehicle: saline): 151 % of control and 155 % of control
- T/C (dose: 39.0 mg/kg/injection, schedule: Q01DX009 (ip), vehicle: saline): 171 % of control
- T/C (dose: 39.0 mg/kg/injection, schedule: Q04DX003 (ip), vehicle: saline): 152 % of control
- T/C (dose: 40.0 mg/kg/injection, schedule: Q01DX007 (ip), vehicle: saline): 167 % of control
- T/C (dose: 40.0 mg/kg/injection, schedule: Q01DX009 (ip), vehicle: saline): 171 % of control and 189 % of control and 206 % of control
- T/C (dose: 40.0 mg/kg/injection, schedule: Q04DX003 (ip), vehicle: saline): 152 % of control
- T/C (dose: 50.0 mg/kg/injection, schedule: Q01DX001 (ip), vehicle: saline): 150 % of control
- T/C (dose: 50.0 mg/kg/injection, schedule: Q01DX009 (ip), vehicle: saline): 219 % of control and 181 % of control and 239 % of control
- T/C [1]: 177 % of control [middle of 4 runs]
- T/C (dose: 65.0 mg/kg/injection, schedule: Q01DX001 (oral), vehicle: saline): 106 % of control
- T/C (dose: 65.0 mg/kg/injection, schedule: Q01DX009 (ip), vehicle: saline): 168 % of control
- T/C (dose: 65.0 mg/kg/injection, schedule: Q01DX009 (oral), vehicle: saline): 90 % of control
- T/C (dose: 65.0 mg/kg/injection, schedule: Q04DX003 (ip), vehicle: saline): 179 % of control
- T/C (dose: 100.0 mg/kg/injection, schedule: Q01DX001 (ip), vehicle: saline): 161 % of control and 172 % of control and 155 % of control
- T/C (dose: 100.0 mg/kg/injection, schedule: Q01DX009 (ip), vehicle: saline): 95 % of control and 121 % of control
- T/C [2]: 261 % of control [middle of 5 runs]
- T/C (dose: 108.0 mg/kg/injection, schedule: Q01DX001 (oral), vehicle: saline): 121 % of control
- T/C (dose: 108.0 mg/kg/injection, schedule: Q01DX009 (oral), vehicle: saline): 86 % of control
- T/C (dose: 108.0 mg/kg/injection, schedule: Q04DX003 (ip), vehicle: saline): 205 % of control
- T/C (dose: 108.0 mg/kg/injection, schedule: Q08DX002 (ip), vehicle: saline): 150 % of control
- T/C (dose: 180.0 mg/kg/injection, schedule: Q01DX001 (ip), vehicle: saline): 150 % of control
- T/C (dose: 180.0 mg/kg/injection, schedule: Q01DX001 (oral), vehicle: saline): 119 % of control
- T/C (dose: 200.0 mg/kg/injection, schedule: Q01DX001 (ip), vehicle: saline): 277 % of control and 288 % of control and 517 % of control
- T/C [3]: 121 % of control and 123 % of control

Structure (SMILES): NS(=O)(=O)c1ccc(N=Nc2ccc([As](=O)(O)O)cc2)cc1
- T/C [1]: 104 % of control
- T/C [2]: 101 % of control
- T/C [3]: 101 % of control

Structure (SMILES): Nc1ncnc2cc3ncn(C4OC(CO)C(O)C4O)c3cc12 (configuration not stated)
- T/C (dose: 12.5 mg/kg/injection, schedule: Q01DX005 (ip), vehicle: water): 100 % of control
- T/C (dose: 25.0 mg/kg/injection, schedule: Q01DX005 (ip), vehicle: water): 104 % of control
- T/C (dose: 50.0 mg/kg/injection, schedule: Q01DX005 (ip), vehicle: water): 106 % of control
- T/C (dose: 100.0 mg/kg/injection, schedule: Q01DX005 (ip), vehicle: water): 100 % of control
- T/C (dose: 200.0 mg/kg/injection, schedule: Q01DX005 (ip), vehicle: water): 100 % of control

Structure (SMILES): COc1cccc(CCNc2ccncc2N)c1
- T/C (dose: 75.0 mg/kg/injection, schedule: Q01DX001 (ip), vehicle: saline): 96 % of control

Structure (SMILES): Cc1c(OCC(=O)O)cc(Cl)c(Cl)c1Cl
- T/C (dose: 50.0 mg/kg/injection, schedule: Q04DX002 (ip), vehicle: saline with Tween-80): 105 % of control
- T/C (dose: 100.0 mg/kg/injection, schedule: Q04DX002 (ip), vehicle: saline with Tween-80): 102 % of control
- T/C (dose: 200.0 mg/kg/injection, schedule: Q04DX002 (ip), vehicle: saline with Tween-80): 121 % of control
